Test results taken from PubChem BioAssay (NCI).
Several values for one entry are separate records, joined by “and”; a condition that tells them apart may be missing. Equal entries are not always repeated.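 Assay format: 96-well plates, 48-hour exposure. GI50 marks 50% less growth. Definition used: TGI = concentration required for complete inhibition of growth.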

Columns and labels:
Test in all cases: NCI anticancer screen, dose series, 48 h
[1] = system: DLD-1 colon
[2] = system: DMS 273 small cell lung
[3] = system: HOP-18 NSCLC
[4] = system: LOX IMVI melanoma
[5] = system: LXFL 529 NSCLC
[6] = system: NCI-H522 lung
[7] = system: OVCAR-5 ovarian
[8] = system: RXF 393 renal
[9] = system: SK-MEL-28 melanoma
[10] = system: SK-OV-3 ovarian
[11] = system: XF 498 CNS
[12] = system: MDA-MB-435

Row | SMILES | TGI [1] | TGI [2] | TGI [3] | TGI [4] | TGI [5] | TGI [6] | TGI [7] | TGI [8] | TGI [9] | TGI [10] | TGI [11] | GI50 [4] | GI50 [12] | TGI [12] | GI50 [6] | GI50 [3] | GI50 [7] | GI50 [8] | GI50 [9] | GI50 [10]
1 | O=C(O)c1cc2ccc(Cl)cc2c(O)c1C1=CCCCC1 | > 100 µM | 68.8 µM | > 100 µM | > 100 µM | > 100 µM | 92.9 µM | > 100 µM | > 100 µM | > 100 µM | > 100 µM | 51 µM |  |  |  |  |  |  |  |  | 
2 | O=C(CC/C(CC(=O)c1ccc(Cl)cc1)=N\O)Nc1cccc(Cl)c1 | > 100 µM | > 100 µM |  | > 100 µM | > 100 µM |  | > 100 µM |  | > 100 µM | > 100 µM | > 100 µM |  |  |  |  |  |  |  |  | 
3 | Nc1nc2c(ncn2C2OC(CO)C(O)C2O)c(=O)[nH]1 (centres undefined) | 142 µM | 159 µM | 300 µM | > 100 µM and 145 µM |  | > 100 µM and 149 µM | > 100 µM and 291 µM | 162 µM | > 100 µM and 265 µM | > 100 µM and 263 µM |  | > 100 µM | > 100 µM | > 100 µM | > 100 µM |  |  |  |  | 
4 | NC(=O)C1C(=O)Oc2cccnc21 (centres undefined) | > 100 µM | > 100 µM | > 100 µM | > 100 µM |  | > 100 µM |  | > 100 µM | > 100 µM | > 100 µM | > 100 µM |  |  |  |  |  |  |  |  | 
5 | C=C(/C=C/C=C(\CO)CCC=C(C)C)[C@H]1CCC2([C@H](CCCO)/C(=C(/C)C=O)CC[C@]2(C)O)[C@H]1O (some centres undefined) | > 100 µM | > 100 µM | > 100 µM | > 100 µM | > 100 µM |  | > 100 µM |  | > 100 µM | > 100 µM | > 100 µM |  |  |  |  |  |  |  |  | 
6 | CCOC(=O)C(=O)Nc1nc2ccc(OC)cc2s1 | > 100 µM | > 100 µM | > 100 µM | > 100 µM | > 100 µM |  | > 100 µM |  | > 100 µM | > 100 µM |  |  |  |  |  |  |  |  |  | 
7 | CNC(=O)N(CCCCC(NC(C)=O)C(=O)NCc1ccccc1)Cc1ccccc1 (centres undefined) | > 100 µM | > 100 µM |  | > 100 µM | > 100 µM | > 100 µM | > 100 µM | > 100 µM | > 100 µM | > 100 µM | > 100 µM |  |  |  |  |  |  |  |  | 
8 | COc1ccc(S(=O)(=O)NNS(C)(=O)=O)cc1OC | > 100 µM | > 100 µM |  | > 100 µM | > 100 µM | > 100 µM |  | > 100 µM |  |  | > 100 µM |  |  |  |  |  |  |  |  | 
9 | O=C([CH-]C(=O)c1ccccc1)c1ccccc1.[CH2-]C.[CH2-]C.[Tl+3] |  |  | > 100 µM | 54.7 µM |  | > 85.2 µM | > 100 µM | 88.7 µM | > 100 µM | > 100 µM |  | 10.4 µM | 24.8 µM | > 100 µM | 21.5 µM | 28.5 µM | 40.5 µM | 16.5 µM | 33.5 µM | 32.5 µM
10 | O=C(/C=N/O)Nc1cccc(Cl)c1I | > 100 µM | > 100 µM |  | > 100 µM | > 100 µM | > 100 µM | > 100 µM | 74.9 µM | > 100 µM | > 100 µM | > 100 µM |  |  |  |  |  |  |  |  | 
11 | O=C(Nc1c(Cl)cc([N+](=O)[O-])cc1Cl)C(=O)C(C(=O)c1ccncc1)C1OC(=O)c2ccccc21 (centres undefined) | > 100 µM | > 100 µM | > 100 µM | > 100 µM | > 100 µM | > 100 µM | > 100 µM | > 100 µM | > 100 µM | > 100 µM | > 100 µM |  |  |  |  |  |  |  |  | 
12 | Nc1cccc(C(=O)/C=C/c2ccccc2O)c1 | > 100 µM | > 100 µM | > 100 µM | > 100 µM | > 100 µM | > 100 µM | > 100 µM | > 100 µM | > 100 µM | > 100 µM | > 100 µM |  |  |  |  |  |  |  |  | 
13 | Cc1cc(N(CCC#N)CCC#N)ccc1/C=C1N=C(/C=C\c2ccccc2)N(c2ccc(C(=O)O)cc2)C\1=O | > 100 µM |  | > 100 µM | > 100 µM | > 100 µM | > 100 µM | > 100 µM |  | > 100 µM | > 100 µM |  |  |  |  |  |  |  |  |  | 
14 | COc1ccc(C2C(C(=O)O)=C(COC(C)=O)Oc3cc4c(cc32)OCO4)c(OC)c1 (centres undefined) | > 100 µM | > 100 µM | > 100 µM | > 100 µM |  |  |  | > 100 µM | > 100 µM | > 100 µM | > 100 µM |  |  |  |  |  |  |  |  | 
15 | CN(C)CN(C)c1nc(N(C)C)nc(N(C)C)n1 | > 100 µM | > 100 µM | > 100 µM | > 100 µM | > 100 µM | > 100 µM | > 100 µM | > 100 µM | > 100 µM | > 100 µM | > 100 µM |  |  |  |  |  |  |  |  | 
16 | Cc1c(C(=O)/C=C/c2ccc3c(c2)OCO3)[n+](=O)c2ccccc2n1[O-] | > 100 µM | 52.6 µM | > 100 µM | 66.3 µM | 61.9 µM | 36.9 µM | 74.3 µM | 54.1 µM | > 100 µM | 51.2 µM | 92.8 µM |  |  |  |  |  |  |  |  | 
17 | O=S1(=O)CS(=O)(=O)OCCCCCO1 | > 100 µM | > 100 µM | > 100 µM | > 100 µM | > 100 µM | > 100 µM | > 100 µM | > 100 µM | > 100 µM | > 100 µM |  |  |  |  |  |  |  |  |  | 
18 | c1ccc2c(c1)n1nnnc1c1nnnn21 | > 100 µM | > 100 µM |  | > 100 µM | > 100 µM | > 100 µM | > 100 µM | > 100 µM | > 100 µM | > 100 µM | > 100 µM |  |  |  |  |  |  |  |  | 
19 | CCCC/C=C1/CCC(CN(C)C)C1=O (centres undefined) | 2.16 µM | 5.76 µM | 5.56 µM | 2.91 µM | 1.36 µM | 1.39 µM | 12.3 µM | 3.38 µM | 3.93 µM | 25.1 µM |  |  |  | 23.1 µM |  |  | 0.0971 µM |  |  | 
20 | COc1cc2c(c(OC)c1OC)-c1ccc(SC)c(=O)cc1C(CC(=O)Oc1ccccc1F)C2 (centres undefined) | > 7.5 µM |  |  | 4.28 µM | > 7.5 µM | 0.0307 µM | > 7.5 µM |  | > 7.5 µM | > 7.5 µM |  |  |  |  |  |  |  |  |  | 
21 | CC(=O)O[C@H]1C(=O)[C@@]2(C)C([C@H](OC(=O)c3ccccc3)[C@]3(O)C[C@H](OC(=O)[C@H](O)[C@@H](NC(=O)c4ccc(Cl)cc4)c4ccccc4)C(C)=C1C3(C)C)C1(OC(C)=O)CO[C@@H]1C[C@@H]2O (some centres undefined) | > 100 µM |  |  | 49.6 µM | 57.2 µM |  | 25 µM |  | 25 µM | 13.7 µM and 36.7 µM | 3.73 µM |  |  | 0.0126 µM |  |  |  | 0.157 µM |  | 
